For data set [1], the target named is voltage-gated potassium ion channel hERG (Homo sapiens (Human), UniProt Q12809).
For data set [2] the following is noted: rat, in vivo.
In another data set the target is LSD1 (Homo sapiens (Human), UniProt O60341). In words: LSD1 enzyme activity detection (HTRF). It counts as biochemical. As to conditions: HTRF, H3K4me1 substrate; read-out: Inhibition of enzymatic activity of LSD1 IC50.
The next data set is described as follows: in vivo. As to conditions: male, SD, rat.
The next data set has as its system NCI-H1417 cells. The experiment in a line: In vitro cell proliferation detection (CellTiter-Glo, 7 days). It is filed as cell-based. The following applies: Homo sapiens, 168 h; NCI-H1417 cells, 7 days, CellTiter-Glo; read-out: NCI-H1417 proliferation inhibition IC50.
The next data set can be described thus: in vitro. As to conditions: human, Caco-2.
For another data set, the target named is CYP3A4 (Homo sapiens (Human), UniProt P08684). The following applies: microsomes.
Sequence of CYP3A4 (P08684 whole entry): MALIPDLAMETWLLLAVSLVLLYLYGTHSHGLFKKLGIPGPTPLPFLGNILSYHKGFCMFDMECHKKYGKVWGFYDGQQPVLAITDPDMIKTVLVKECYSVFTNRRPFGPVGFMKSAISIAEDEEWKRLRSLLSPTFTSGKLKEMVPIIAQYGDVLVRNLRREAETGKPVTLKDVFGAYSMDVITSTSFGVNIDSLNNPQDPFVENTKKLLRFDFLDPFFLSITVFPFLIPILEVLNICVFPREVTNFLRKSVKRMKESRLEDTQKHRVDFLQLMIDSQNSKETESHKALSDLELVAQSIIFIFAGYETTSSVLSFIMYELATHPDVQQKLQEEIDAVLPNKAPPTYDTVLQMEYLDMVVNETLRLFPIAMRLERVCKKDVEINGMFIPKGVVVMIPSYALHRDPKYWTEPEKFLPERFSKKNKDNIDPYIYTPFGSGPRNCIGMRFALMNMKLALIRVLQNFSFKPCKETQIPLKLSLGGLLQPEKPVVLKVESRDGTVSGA

Sequence of voltage-gated potassium ion channel hERG (Q12809 whole entry): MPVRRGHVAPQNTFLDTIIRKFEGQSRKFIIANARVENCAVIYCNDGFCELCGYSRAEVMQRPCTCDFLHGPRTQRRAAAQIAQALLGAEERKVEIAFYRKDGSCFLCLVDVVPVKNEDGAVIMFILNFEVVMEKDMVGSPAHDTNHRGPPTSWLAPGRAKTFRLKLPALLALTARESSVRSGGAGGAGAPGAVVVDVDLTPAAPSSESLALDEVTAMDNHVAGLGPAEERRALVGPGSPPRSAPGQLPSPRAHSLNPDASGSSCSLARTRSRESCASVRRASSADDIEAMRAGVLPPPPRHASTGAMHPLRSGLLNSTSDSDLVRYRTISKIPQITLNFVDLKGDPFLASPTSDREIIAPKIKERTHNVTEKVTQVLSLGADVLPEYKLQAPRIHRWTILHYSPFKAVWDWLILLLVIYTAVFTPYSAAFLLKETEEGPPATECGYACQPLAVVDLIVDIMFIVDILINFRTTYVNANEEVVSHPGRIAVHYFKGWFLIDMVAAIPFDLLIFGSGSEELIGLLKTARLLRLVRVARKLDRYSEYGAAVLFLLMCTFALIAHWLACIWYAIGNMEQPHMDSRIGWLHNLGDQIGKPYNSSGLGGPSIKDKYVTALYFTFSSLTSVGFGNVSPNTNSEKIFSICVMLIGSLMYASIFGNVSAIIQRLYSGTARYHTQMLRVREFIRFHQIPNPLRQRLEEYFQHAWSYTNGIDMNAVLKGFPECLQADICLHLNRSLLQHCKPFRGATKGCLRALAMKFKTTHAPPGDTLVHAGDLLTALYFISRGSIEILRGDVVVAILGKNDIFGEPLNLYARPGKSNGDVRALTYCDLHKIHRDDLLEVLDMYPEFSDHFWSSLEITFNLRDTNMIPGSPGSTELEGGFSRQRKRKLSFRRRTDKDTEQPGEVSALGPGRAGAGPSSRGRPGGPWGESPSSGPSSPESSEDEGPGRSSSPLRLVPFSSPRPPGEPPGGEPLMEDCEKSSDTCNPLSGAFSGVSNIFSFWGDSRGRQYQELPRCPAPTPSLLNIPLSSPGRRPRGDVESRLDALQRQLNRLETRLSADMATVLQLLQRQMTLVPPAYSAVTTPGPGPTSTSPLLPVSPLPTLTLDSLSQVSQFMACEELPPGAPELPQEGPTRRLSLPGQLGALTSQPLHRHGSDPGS

For orientation: AUC(0-inf) means total exposure, with the tail of the curve extrapolated. The low end stands for less exposure, the high end for more exposure. The term Cmax denotes the highest concentration seen after dosing. By Vd is commonly meant the apparent volume that relates the amount in the body to the concentration in plasma or blood. A high value points to wide distribution into tissue. For orientation: half-life means how long it takes for the measured level to halve. High values mean slow loss, low ones fast loss. By Papp A→B is commonly meant how fast a substance crosses the layer from the apical side. A lower Papp A→B goes with poor permeation. Usually Papp B→A stands for the apparent permeability from the basolateral to the apical side of a cell layer. As usually defined, the efflux ratio is the permeability from basolateral to apical divided by that in the opposite direction, in the common usage. Molecule `COc1ccc(-c2c(-c3ccc(C#N)c(F)c3)nc(N3C4CCC3CC(N)C4)n3ccnc23)cc1F` (stereo not shown) [Example 120, 4-(5-(3-amino-8-azabicyclo[3.2.1]octane-8-yl)-8-(3-fluoro-4-methoxyphenyl)imidazolo[1,2-c]pyrimidin-7-yl)-2-fluorobenzonitrile] displayed an IC50 in data set [1] of 7.83 µM. In data set [2] (male, SD), this molecule came in with an F of 14.4%. The same molecule had a Cl in data set [2] of 39.9. Further, at LSD1, the IC50 was 0.00077 ± 0.00043 µM. In “in vivo”, this molecule showed an AUC(0-inf) of 310 ng·h/mL, a Cmax of 34.7 ng/mL, a Vd of 14.5 L/kg and a half-life of 4.82 h. Besides, in the data set with NCI-H1417 cells, the IC50 is 0.00208 µM. For the same molecule, in “in vitro”, the apparent permeability from apical to basolateral (Papp A→B) at 120 min worked out at 2.88 ×10⁻⁶ cm/s, the Papp B→A at 120 min amounted to 7.37 ×10⁻⁶ cm/s and the efflux ratio at 120 min was 2.56. Further, the IC50 on CYP3A4 was determined as 8.93 µM.

For the origin of these results see patent US20240216357A1 (SICHUAN HUIYU PHARMACEUTICAL CO., LTD., priority 2021, published 2024).
